This is an account of results in patent US8981111B2 (priority 2008, dated 2015).

The nature of the first data set: log P (HPLC/MS data of the preparation examples). Particulars: LC-MS, method [b]: pH 2.7 with 0.1% formic acid in water and acetonitrile, linear gradient 10% to 95% acetonitrile.
On to `CC(C)CCOC(=O)Nc1cccc(CON=C(c2ccccc2)c2ncnn2C)n1` [Example 317], for which the log p was 3.9^[b].

On to `CCC(C)COC(=O)Nc1cccc(CON=C(c2ccccc2)c2nccn2C)n1` (stereo not drawn) [Example 324], for which the log p is 2.52^[b]. As to `CC(C)COC(=O)Nc1cccc(CON=C(c2ccccc2)c2nccn2C)n1` [Example 325], the log p is 2.21^[b]. For the compound `CC(C)CCOC(=O)Nc1cccc(CON=C(c2ccccc2)c2nccn2C)n1` [Example 326], the log p is 2.51^[b]. The same measure, in the same setting: under `Cn1ccnc1C(=NOCc1cccc(NC(=O)OCC(Cl)(Cl)Cl)n1)c1ccccc1` [Example 327] stands 2.45^[b]; under `C=CCCOC(=O)Nc1cccc(CON=C(c2ccccc2)c2nccn2C)n1` [Example 328], 2.02^[b]; under `CC(C)CCC(=O)Nc1cccc(CON=C(c2ccccc2)c2nccn2C)n1` [Example 329], 2.15^[b]. On the same count and under the same terms, the figure for `C#CCOC(=O)Nc1cccc(CON=C(c2ccccc2)c2nccn2C)n1` [Example 330] is 1.66^[b]. As to `Cn1ccnc1C(=NOCc1cccc(NC(=O)CCc2ccc(Cl)s2)n1)c1ccccc1` [Example 331], the log p is 2.49^[b]. Still for that read-out and setting: the figure for `C#CCCOC(=O)Nc1cccc(CON=C(c2ccccc2)c2nccn2C)n1` [Example 332] is 1.78^[b]; for `CC(C(=O)Nc1cccc(CON=C(c2ccccc2)c2nccn2C)n1)c1ccccc1` (stereo not drawn) [Example 333] it is 2.21^[b]. The same measure, in the same setting: under `CCCCSC(=O)Nc1cccc(CON=C(c2ccccc2)c2nccn2C)n1` [Example 334] stands 2.58^[b]. Still for that read-out and setting: under `Cn1ccnc1C(=NOCc1cccc(NC(=O)CCc2ccc(Cl)s2)n1)c1cccc(F)c1` [Example 335] stands 2.77^[b]; under `C#CCCOC(=O)Nc1cccc(CON=C(c2cccc(F)c2)c2nccn2C)n1` [Example 336], 1.98^[b]; under `COC(C(=O)Nc1cccc(CON=C(c2ccccc2)c2nccn2C)n1)c1ccccc1` (stereo not drawn) [Example 337], 2.15^[b]. On to `Cn1ccnc1C(=NOCc1cccc(NC(=O)C2CCCCO2)n1)c1ccccc1` (stereo not drawn) [Example 338], for which the log p was 1.93^[b]. Still for that read-out and setting: under `COCCOC(=O)Nc1cccc(CON=C(c2ccccc2)c2nccn2C)n1` [Example 339] stands 1.34^[b]. As to `Cn1ccnc1C(=NOCc1cccc(NC(=O)C2CCCCO2)n1)c1cccc(F)c1` (stereo not drawn) [Example 340], the log p is 2.17^[b].

With `COCCOC(=O)Nc1cccc(CON=C(c2cccc(F)c2)c2nccn2C)n1` [Example 341], the log p is 1.66^[b]. On the same count and under the same terms, under `CCCCSC(=O)Nc1cccc(CON=C(c2cccc(F)c2)c2nccn2C)n1` [Example 342] stands 2.88^[b]; under `Cn1ccnc1C(=NOCc1cccc(NC(=O)OCCF)n1)c1cccc(F)c1` [Example 343], 1.75^[b].

Turning to `CCC(C)COC(=O)Nc1cccc(CON=C(c2cccc(F)c2)c2nccn2C)n1` (stereo not drawn) [Example 344], the log p was 2.82^[b]. Still for that read-out and setting: the figure for `CC(C)COC(=O)Nc1cccc(CON=C(c2cccc(F)c2)c2nccn2C)n1` [Example 345] is 2.51^[b]; for `CC(C)CCOC(=O)Nc1cccc(CON=C(c2cccc(F)c2)c2nccn2C)n1` [Example 346] it is 2.82^[b]. Take `Cn1ccnc1C(=NOCc1cccc(NC(=O)OCC(Cl)(Cl)Cl)n1)c1cccc(F)c1` [Example 347]: the log p was 2.73^[b]. Still for that read-out and setting: under `CC(C)CCC(=O)Nc1cccc(CON=C(c2cccc(F)c2)c2nccn2C)n1` [Example 348] stands 2.42^[b]; under `COC(C(=O)Nc1cccc(CON=C(c2cccc(F)c2)c2nccn2C)n1)c1ccccc1` (stereo not drawn) [Example 349], 2.42^[b]; under `Cc1ncoc1C(=NOCc1csc(N)n1)c1ccccc1` [Example 351, 4-[({[(4-methyl-1,3-oxazol-5-yl)(phenyl)methylene]amino-}oxy)methyl]-1,3-thiazol-2-amine], 1.46^[b].

Regarding `Cc1ncoc1C(=NOCc1cccc(N2C(=O)c3ccccc3C2=O)n1)c1ccccc1` [Example 353], the log p is 3.09^[b]. The same measure, in the same setting: under `CCCCC#Cc1cccc(CON=C(c2ccccc2)c2nncn2C)n1` [Example 354] stands 3.23^[b]; under `COc1ccc(C(=NOCc2cccc(N3C(=O)c4ccccc4C3=O)n2)c2ncc(C(F)(F)F)cc2Cl)cc1Br` [Example 356], 4.78^[b].

With `COc1ccc(C(=NOCc2csc(N)n2)c2ncc(C(F)(F)F)cc2Cl)cc1Br` [Example 357], the log p was 2.8^[b]. The same measure, in the same setting: under `COc1ccc(C(=NOCc2cccc(N)n2)c2ncc(C(F)(F)F)cc2Cl)cc1Br` [Example 358] stands 2.54^[b]; under `COc1ccc(C(=NOCc2cccc(NC(=O)C(C)(C)C)n2)c2ncc(C(F)(F)F)cc2Cl)cc1Br` [Example 359], 5.2^[b]. The same measure, in the same setting: the figure for `COc1ccc(C(=NOCc2cccc(NC(=O)C3CC3)n2)c2ncc(C(F)(F)F)cc2Cl)cc1Br` [Example 360] is 4.54^[b]; for `COc1ccc(C(=NOCc2cccc(NC(=O)C(F)(F)F)n2)c2ncc(C(F)(F)F)cc2Cl)cc1Br` [Example 361] it is 4.97^[b].

Consider `COCCOCC(=O)Nc1cccc(CON=C(c2ccc(OC)c(Br)c2)c2ncc(C(F)(F)F)cc2Cl)n1` [Example 362], for which the log p is 4.51^[b].

Take `CCCCCOC(=O)Nc1cccc(CON=C(c2ccc(OC)c(Br)c2)c2ncc(C(F)(F)F)cc2Cl)n1` [Example 363]: the log p was 6.13^[b]. On the same count and under the same terms, under `COc1ccc(C(=NOCc2cccc(NC(=O)c3ccccc3)n2)c2ncc(C(F)(F)F)cc2Cl)cc1Br` [Example 364] stands 5.23^[b]; under `COc1ccc(C(=NOCc2cccc(NC(=O)Cc3ccccc3)n2)c2ncc(C(F)(F)F)cc2Cl)cc1Br` [Example 365], 5.08^[b]. Still for that read-out and setting: the figure for `CCCCCCCCC(=O)Nc1cccc(CON=C(c2ccc(OC)c(Br)c2)c2ncc(C(F)(F)F)cc2Cl)n1` [Example 366] is 6.65^[b]; for `COc1ccc(C(=NOCc2cccc(NC(=O)C(C)C)n2)c2ncc(C(F)(F)F)cc2Cl)cc1Br` [Example 367] it is 4.73^[b]. Still for that read-out and setting: the figure for `CCCCCC(=O)Nc1cccc(CON=C(c2ccc(OC)c(Br)c2)c2ncc(C(F)(F)F)cc2Cl)n1` [Example 368] is 5.44^[b]. Consider `CCCCCCC(=O)Nc1cccc(CON=C(c2ccc(OC)c(Br)c2)c2ncc(C(F)(F)F)cc2Cl)n1` [Example 369], for which the log p was 5.82^[b]. Same read-out and setting: under `COc1ccc(C(=NOCc2cccc(NC(=O)CC(C)C)n2)c2ncc(C(F)(F)F)cc2Cl)cc1Br` [Example 370] stands 5.03^[b]. The same measure, in the same setting: under `CCCCCOC(=O)Nc1nc(CON=C(c2ccc(OC)c(Br)c2)c2ncc(C(F)(F)F)cc2Cl)cs1` [Example 371] stands 5.59^[b]; under `Cc1cnc(C)c(C(=NOCc2cccc(N3C(=O)c4ccccc4C3=O)n2)c2ccccc2)n1` [Example 372], 3.35^[b]. Same read-out and setting: the figure for `Cc1cnc(C)c(C(=NOCc2cccc(N)n2)c2ccccc2)n1` [Example 373] is 1.31^[b]. Take `CCCOC(=O)Nc1cccc(CON=C(c2ccccc2)c2nc(C)cnc2C)n1` [Example 374]: the log p was 3.81^[b].

Turning to `CCCCCCOC(=O)Nc1cccc(CON=C(c2ccccc2)c2nc(C)cnc2C)n1` [Example 375], the log p is 5.2^[b]. Consider `CCCCOC(=O)Nc1cccc(CON=C(c2ccccc2)c2nc(C)cnc2C)n1` [Example 376], for which the log p is 4.29^[b]. The same measure, in the same setting: the figure for `CCCCCC(=O)Nc1cccc(CON=C(c2ccccc2)c2nc(C)cnc2C)n1` [Example 377] is 4.09^[b]; for `CCCCCOC(=O)Nc1cccc(CON=C(c2ccccc2)c2nc(C)cnc2C)n1` [Example 378] it is 4.75^[b].

Take `CCCCC(=O)Nc1cccc(CON=C(c2ccccc2)c2nc(C)cnc2C)n1` [Example 379]: the log p is 3.65^[b]. Still for that read-out and setting: the figure for `CCCCCCC(=O)Nc1cccc(CON=C(c2ccccc2)c2nc(C)cnc2C)n1` [Example 380] is 4.54^[b]. As for `CCCC(=O)Nc1cccc(CON=C(c2ccccc2)c2nc(C)cnc2C)n1` [Example 381], the log p was 3.21^[b]. Still for that read-out and setting: the figure for `Nc1ccnc(CON=C(c2ccsc2)c2snc(Cl)c2Cl)n1` [Example 382] is 1.86^[b]; for `Nc1nc(CON=C(c2ccsc2)c2snc(Cl)c2Cl)cs1` [Example 383] it is 2.51^[b]. On the same count and under the same terms, the figure for `CC(C)(C)C(=O)Nc1ccnc(CON=C(c2ccsc2)c2snc(Cl)c2Cl)n1` [Example 384] is 4.67^[b]. On the same count and under the same terms, the figure for `Cn1ccnc1C(=NOCc1cccc(N2C(=O)c3ccccc3C2=O)n1)c1cccs1` [Example 385] is 1.78^[b]; for `CCCCCC(=O)Nc1ccnc(CON=C(c2cccs2)c2nccn2C)n1` [Example 388] it is 1.93^[b].

Staying with this data set, now noted: LC-MS, method [c]: pH 7.8 with 0.001 molar ammonium hydrogen carbonate solution in water, linear gradient 10% to 95% acetonitrile.
For `Cn1ccnc1C(=NOCc1nccc(N)n1)c1cccs1` [Example 386], the log p is 1.13^[c]. The same measure, in the same setting: the figure for `Cn1ccnc1C(=NOCc1cccc(N)n1)c1cccs1` [Example 387] is 1.74^[c].

The same data set, now with this note: reversed phase HPLC column, pH 2.7.
Compound `CCCCCC(=O)Nc1cccc(CON=C(c2ccccc2)c2ocnc2C)n1` [Example 320, N-{6-[({[(4-methyl-1,3-oxazol-5-yl)(phenyl)methylene]amino}oxy)methyl]pyridin-2-yl}hexanamide] returned a chromatographic logP of 3.94.

With `CCCCCOC(=O)Nc1nc(CON=C(c2ccccc2)c2ocnc2C)cs1` [Example 321, pentyl{4-[({[(4-methyl-1,3-oxazol-5-yl)(phenyl)methylene]amino}oxy)methyl]-1,3-thiazol-2-yl}carbamate], the chromatographic logP was 4.09. `Cc1ncoc1C(=NOCc1cccc(N2C(=O)c3ccccc3C2=O)n1)c1ccccc1` [Example 352, 2-{6-[({[(4-methyl-1,3-oxazol-5-yl)(phenyl)methylene]amino}oxy)methyl]pyridin-2-yl}-1H-isoindole-1,3(2H)-dione] gave a chromatographic logP of 3.25.

Usually chromatographic logP stands for lipophilicity estimated from chromatographic retention.
